Experimental data: patent publication US12139486B2, “Octahydro fused azadecalin glucocorticoid receptor modulators” (Corcept Therapeutics, Inc., priority 2013, dated 2024)
pKi: −log10 of the molar value.

Assays:
[1] = target: T1, glucocorticoid receptor (Homo sapiens, UniProt P04150); assay: HepG2 Tyrosine Aminotransferase (TAT) Assay; format: cell-based
T1 construct: endogenous in cells; host or cells: HepG2
T1 sequence (P04150 1-777): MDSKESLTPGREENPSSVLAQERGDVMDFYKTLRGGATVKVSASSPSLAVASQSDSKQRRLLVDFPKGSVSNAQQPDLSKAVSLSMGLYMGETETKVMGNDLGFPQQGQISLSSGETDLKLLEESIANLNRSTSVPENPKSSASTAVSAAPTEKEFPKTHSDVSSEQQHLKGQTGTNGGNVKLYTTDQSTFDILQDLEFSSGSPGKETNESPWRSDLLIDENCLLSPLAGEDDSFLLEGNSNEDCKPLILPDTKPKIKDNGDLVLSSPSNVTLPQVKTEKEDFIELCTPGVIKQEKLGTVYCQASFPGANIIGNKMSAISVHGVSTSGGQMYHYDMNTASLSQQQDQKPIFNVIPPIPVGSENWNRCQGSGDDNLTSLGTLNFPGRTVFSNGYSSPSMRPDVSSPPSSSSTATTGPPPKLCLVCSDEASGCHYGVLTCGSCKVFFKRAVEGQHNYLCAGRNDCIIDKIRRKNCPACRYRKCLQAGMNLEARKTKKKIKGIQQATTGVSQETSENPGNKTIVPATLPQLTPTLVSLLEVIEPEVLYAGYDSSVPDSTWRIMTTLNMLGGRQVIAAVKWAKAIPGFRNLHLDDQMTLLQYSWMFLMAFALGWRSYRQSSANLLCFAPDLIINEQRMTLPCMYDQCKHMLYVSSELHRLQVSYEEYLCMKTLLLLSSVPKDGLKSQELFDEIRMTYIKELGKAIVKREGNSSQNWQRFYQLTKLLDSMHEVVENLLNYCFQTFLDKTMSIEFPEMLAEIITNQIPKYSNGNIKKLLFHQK
Method: Glucocorticoid mediated activation of TAT occurs by transactivation of glucocorticoid response elements in the TAT promoter by glucocorticoid receptor-agonist complex.
HepG2 cells were cultured using MEME media supplemented with 10% (v/v) foetal bovine serum; 2 mM L-glutamine and 1% (v/v) NEAA at 37° C., 5%/95% (v/v) CO2/air.
Compounds were serially half log diluted in 100% (v/v) dimethylsulphoxide from a 10 mM stock.
HepG2 cells were then lysed with 30 μl of cell lysis buffer containing a protease inhibitor cocktail for 15 minutes at 4° C. […] After 2 hours incubation at 37° C. the reaction was terminated by the addition of 15 μl of 10 M aqueous potassium hydroxide solution, and the plates incubated for a further 30 minutes at 37° C.
[compound] and fitting the data to a 4 parameter logistic equation.

[2] = target: T2, human recombinant GR (Homo sapiens, UniProt P04150); assay: Human Glucocorticoid Receptor (GR) Fluorescence Polarisation (FP) Binding Assay; conditions: Ki from IC50 by ligand depletion correction; displacement of Fluorome GS Red
T2 construct: purchased PanVera P2812
T2 sequence (P04150 1-777): T1 sequence (P04150 1-777)
Method: The following is a description of a FP assay for measuring compound inhibition of labelled glucocorticoid binding to the human recombinant GR.
The binding affinity of test compounds was determined using a FP binding assay using human recombinant GR (PanVera P2812) and a fluorescent labelled glucocorticoid ligand (Fluorome GS Red) (PanVera P2894). The presence of inhibitors prevents the formation of a GS Red/GR complex resulting in a decrease in the measured polarisation value. The change in polarisation value in the presence of test compounds is used to calculate the binding affinity of the compound for GR.
This assay was performed in 384 well, black, round-bottom, polypropylene micro titre plates in a final volume of 20 μl. The assay contained 5 μl 1 nM GR (final concentration), 5 μl 0.5 nM Fluorome GS Red (final concentration) in the presence of 10p test compounds. Positive control wells (high polarisation) receive, 10 μl 2% (v:v) DMSO vehicle (1% (v/v) final concentration)+5 μl 1 nM GR and 5 μl 0.5 nM Fluorome GS Red. […] Assay blank background wells (used for normalisation) receive 15 μl 1×GS screening buffer+5 μl GR.
For the IC50 determination (concentration of compound that displaces 50% of the bound GS Red), compounds were tested at eight different concentrations in duplicate in two independently performed experiments. Compounds were prepared as solubilised solids at 10 mM in DMSO. On the day of assay, an 8 point half-log serial dilution (55 μl DMSO+25 μl compound solution) was prepared. A 1:50 dilution (1 μl compound solution+49 μl 1×GR screening buffer) was prepared for each compound. The compounds were prepared at 2× final assay concentration.
The plates were mixed and incubated for 4 hour at room temperature. FP was measured using an Envision Excite plate reader with 535 nm excitation and 590 nm emission interference filters.
Milli-polarisation (mP) values were calculated using the below equation: mP=1000*(S−G*P)/(S+G*P) where S and P are assay blank background subtracted fluorescence units, G=G-factor (1.07).
Compound IC50 values were calculated by plotting a [compound] v. % inhibition curve and fitting the data to a 4-parameter logistic fit equation.
10×GR screening buffer (100 mM potassium phosphate pH 7.4, 200 mM Na2MoO4, 1 mM EDTA, 20% (v/v) DMSO). To prepare 1×GR screening buffer, combine 1 ml 10×GR screening buffer (PanVera P2814)+1 ml stabilising peptide (PanVera P2815)+7.95 ml 4° C. MQ water. Add 50p 1M DTT, vortex and place on ice until use.

Row | Compound | pKi [1] | pKi [2]
1 | CCCn1cc(S(=O)(=O)N2CC[C@H]3Cc4c(cnn4-c4ccc(F)cc4)C[C@]3(C(=O)c3ccccn3)C2)cn1 [Example 2B, ((4aR,8aS)-1-(4-fluorophenyl)-6-((1-propyl-1H-pyrazol-4-yl)sulfonyl)-4,4a,5,6,7,8,8a,9-octahydro-1H-pyrazolo[3,4-g]isoquinolin-4a-yl)(pyridin-2-yl)methanone] | > 7.70 | > 9.30
2 | Cn1ncc(S(=O)(=O)N2CC[C@H]3Cc4c(cnn4-c4ccc(F)cc4)C[C@]3(C(=O)c3cc(C(F)(F)F)ccn3)C2)n1 [Example 2C, ((4aR,8aS)-1-(4-fluorophenyl)-6-((2-methyl-2H-1,2,3-triazol-4-yl)sulfonyl)-4,4a,5,6,7,8,8a,9-octahydro-1H-pyrazolo[3,4-g]isoquinolin-4a-yl)(4-(trifluoromethyl)pyridin-2-yl)methanone] | > 7.70 | 9.00 to 9.30
3 | CCCn1cc(S(=O)(=O)N2CC[C@H]3Cc4c(cnn4-c4ccc(F)cc4)C[C@]3(C(=O)c3cc(C(F)(F)F)ccn3)C2)cn1 [Example 2D, ((4aR,8aS)-1-(4-fluorophenyl)-6-((1-propyl-1H-pyrazol-4-yl)sulfonyl)-4,4a,5,6,7,8,8a,9-octahydro-1H-pyrazolo[3,4-g]isoquinolin-4a-yl)(4-(trifluoromethyl)pyridin-2-yl)methanone] | > 7.70 | > 9.30
4 | CCCn1cc(S(=O)(=O)N2CC[C@H]3Cc4c(cnn4-c4ccc(F)cc4)C[C@]3(C(=O)c3nccs3)C2)cn1 [Example 2E, ((4aR,8aS)-1-(4-fluorophenyl)-6-((1-propyl-1H-pyrazol-4-yl)sulfonyl)-4,4a,5,6,7,8,8a,9-octahydro-1H-pyrazolo[3,4-g]isoquinolin-4a-yl)(thiazol-2-yl)methanone] | > 7.70 | > 9.30
5 | O=C(c1ccccn1)[C@]12Cc3cnn(-c4ccc(F)cc4)c3C[C@@H]1CCN(S(=O)(=O)c1cccc(F)c1)C2 [Example 2F, ((4aR,8aS)-1-(4-fluorophenyl)-6-((3-fluorophenyl)sulfonyl)-4,4a,5,6,7,8,8a,9-octahydro-1H-pyrazolo[3,4-g]isoquinolin-4a-yl)(pyridin-2-yl)methanone] | 7.00 to 7.70 | < 9.00
6 | O=C(c1ccccn1)[C@]12Cc3cnn(-c4ccc(F)cc4)c3C[C@@H]1CCN(S(=O)(=O)c1cccc(C(F)(F)F)c1)C2 [Example 2G, ((4aR,8aS)-1-(4-fluorophenyl)-6-((3-(trifluoromethyl)phenyl)sulfonyl)-4,4a,5,6,7,8,8a,9-octahydro-1H-pyrazolo[3,4-g]isoquinolin-4a-yl)(pyridin-2-yl)methanone] | 7.00 to 7.70 | < 9.00
7 | Cn1cc(S(=O)(=O)N2CC[C@H]3Cc4c(cnn4-c4ccc(F)cc4)C[C@]3(C(=O)c3cc(C(F)(F)F)ccn3)C2)cn1 [Example 2H, ((4aR,8aS)-1-(4-fluorophenyl)-6-((1-methyl-1H-pyrazol-4-yl)sulfonyl)-4,4a,5,6,7,8,8a,9-octahydro-1H-pyrazolo[3,4-g]isoquinolin-4a-yl)(4-(trifluoromethyl)pyridin-2-yl)methanone] | 7.00 to 7.70 | < 9.00
8 | Cn1ccc(S(=O)(=O)N2CC[C@H]3Cc4c(cnn4-c4ccc(F)cc4)C[C@]3(C(=O)c3cc(C(F)(F)F)ccn3)C2)n1 [Example 2I, ((4aR,8aS)-1-(4-fluorophenyl)-6-((1-methyl-1H-pyrazol-3-yl)sulfonyl)-4,4a,5,6,7,8,8a,9-octahydro-1H-pyrazolo[3,4-g]isoquinolin-4a-yl)(4-(trifluoromethyl)pyridin-2-yl)methanone] | 7.00 to 7.70 | 9.00 to 9.30
9 | Cn1nccc1S(=O)(=O)N1CC[C@H]2Cc3c(cnn3-c3ccc(F)cc3)C[C@]2(C(=O)c2cc(C(F)(F)F)ccn2)C1 [Example 2J, ((4aR,8aS)-1-(4-fluorophenyl)-6-((1-methyl-1H-pyrazol-5-yl)sulfonyl)-4,4a,5,6,7,8,8a,9-octahydro-1H-pyrazolo[3,4-g]isoquinolin-4a-yl)(4-(trifluoromethyl)pyridin-2-yl)methanone] | 7.00 to 7.70 | < 9.00
10 | CCn1cc(S(=O)(=O)N2CC[C@H]3Cc4c(cnn4-c4ccc(F)cc4)C[C@]3(C(=O)c3cc(C(F)(F)F)ccn3)C2)cn1 [Example 2K, ((4aR,8aS)-6-((1-ethyl-1H-pyrazol-4-yl)sulfonyl)-1-(4-fluorophenyl)-4,4a,5,6,7,8,8a,9-octahydro-1H-pyrazolo[3,4-g]isoquinolin-4a-yl)(4-(trifluoromethyl)pyridin-2-yl)methanone] | 7.00 to 7.70 | 9.00 to 9.30
11 | CCn1nccc1S(=O)(=O)N1CC[C@H]2Cc3c(cnn3-c3ccc(F)cc3)C[C@]2(C(=O)c2cc(C(F)(F)F)ccn2)C1 [Example 2L, ((4aR,8aS)-6-((1-ethyl-1H-pyrazol-5-yl)sulfonyl)-1-(4-fluorophenyl)-4,4a,5,6,7,8,8a,9-octahydro-1H-pyrazolo[3,4-g]isoquinolin-4a-yl)(4-(trifluoromethyl)pyridin-2-yl)methanone] | 7.00 to 7.70 | < 9.00
12 | O=C(c1nccs1)[C@]12Cc3cnn(-c4ccc(F)cc4)c3C[C@@H]1CCN(S(=O)(=O)c1ccc(C(F)(F)F)cc1)C2 [Example 2M, ((4aR,8aS)-1-(4-fluorophenyl)-6-((4-(trifluoromethyl)phenyl)sulfonyl)-4,4a,5,6,7,8,8a,9-octahydro-1H-pyrazolo[3,4-g]isoquinolin-4a-yl)(thiazol-2-yl)methanone] | 7.00 to 7.70 | < 9.00
13 | CC(C)n1ncc(S(=O)(=O)N2CC[C@H]3Cc4c(cnn4-c4ccc(F)cc4)C[C@]3(C(=O)c3ccccn3)C2)n1 [Example 2N, ((4aR,8aS)-1-(4-fluorophenyl)-6-((2-isopropyl-2H-1,2,3-triazol-4-yl)sulfonyl)-4,4a,5,6,7,8,8a,9-octahydro-1H-pyrazolo[3,4-g]isoquinolin-4a-yl)(pyridin-2-yl)methanone] | > 7.70 | > 9.30
14 | CCn1ncc(S(=O)(=O)N2CC[C@H]3Cc4c(cnn4-c4ccc(F)cc4)C[C@]3(C(=O)c3cc(C(F)(F)F)ccn3)C2)n1 [Example 2O, ((4aR,8aS)-6-((2-ethyl-2H-1,2,3-triazol-4-yl)sulfonyl)-1-(4-fluorophenyl)-4,4a,5,6,7,8,8a,9-octahydro-1H-pyrazolo[3,4-g]isoquinolin-4a-yl)(4-(trifluoromethyl)pyridin-2-yl)methanone] | > 7.70 | 9.00 to 9.30
